Source: ChEMBL document CHEMBL4229492, “Design, Synthesis, and Biological Evaluation of Novel 7-[(3 aS,7 aS)-3 a-Aminohexahydropyrano[3,4- c]pyrrol-2(3 H)-yl]-8-methoxyquinolines with Potent Antibacterial Activity against Respiratory Pathogens” (J Med Chem, 2018)
In brackets after ≈: the same amount, converted by molar mass. Activity calls are given as the source filed them. The rule behind the calls is not given here.

How the values were obtained:
Staphylococcus aureus [1] = assay: Antibacterial activity against Staphylococcus aureus SMITH after 18 hrs by two-fold microbroth dilution method; assay type: functional
Streptococcus pneumoniae [2] = assay: Antibacterial activity against penicillin-resistant Streptococcus pneumoniae 033806 after 18 hrs by two-fold microbroth dilution method; assay type: functional; conditions: Streptococcus pneumoniae, 033806, 18 h
Mus musculus [3] = assay: Toxicity in Slc:ddY mouse assessed as induction of convulsion at 50 ug/5 uL/mouse administered intracisternally and measured over 30 mins post dose; assay type: organism-based; conditions: in vivo, other, 0.5 h
Mus musculus [4] = assay: Toxicity in Slc:ddY mouse assessed as induction of mortality at 50 ug/5 uL/mouse administered intracisternally and measured over 30 mins post dose; assay type: organism-based; conditions: in vivo, other, 0.5 h
Streptococcus pneumoniae [5] = assay: Antibacterial activity against penicillin-susceptible Streptococcus pneumoniae J41 after 18 hrs by two-fold microbroth dilution method; assay type: functional; conditions: J41, 18 h
Bacillus spizizenii = assay: Antibacterial activity against Bacillus subtilis ATCC 6633 after 18 hrs by two-fold microbroth dilution method; assay type: functional; conditions: ATCC 6633, 18 h
[6] = AUC (0 to 8 hrs) in cynomolgus monkey serum at 5 mg/kg, iv; assay type: ADME, organism-based, Macaca fascicularis; parameters: dose 5 mg/kg, time < 8 hr, route intravenous
Staphylococcus aureus [7] = assay: Antibacterial activity against levofloxacin and methicillin-resistant Staphylococcus aureus 870307 after 18 hrs by two-fold microbroth dilution method; assay type: functional; conditions: Staphylococcus aureus, 870307, 18 h
Mus musculus [8] = assay: Toxicity in Slc:ddY mouse assessed as induction of mortality at 50 ug/5 uL/mouse administered intracisternally 30 mins after 400 mg/kg, po BPAA dosing and measured over 30 mins post dose; assay type: organism-based; conditions: in vivo, 0.5 h
[9] = Metabolic stability in human microsomes at 1 uM assessed as compound remaining after 30 mins; assay type: ADME, Microsome; conditions: read-out: Stability
Mus musculus [10] = assay: Toxicity in Slc:ddY mouse assessed as induction of mortality at 15 ug/5 uL/mouse administered intracisternally and measured over 30 mins post dose; assay type: organism-based; conditions: in vivo, other, 0.5 h
Staphylococcus aureus [11] = assay: Antibacterial activity against levofloxacin and methicillin-resistant Staphylococcus aureus 890325-1 after 18 hrs by two-fold microbroth dilution method; assay type: functional; conditions: 890325-1, 18 h
Streptococcus pneumoniae [12] = assay: In vivo antibacterial activity against quinolone-sensitive and penicillin-resistant Streptococcus pneumoniae 033806 infected in CBA/JNCrj mouse assessed as reduction in bacterial count at 10 to 40 mg/kg, sc administered twice per day starting from 1 day after infection and measured on day after final dose; assay type: functional, organism-based
Mus musculus [13] = assay: Toxicity in Slc:ddY mouse assessed as induction of mortality at 5 ug/5 uL/mouse administered intracisternally 30 mins after 400 mg/kg, po BPAA dosing and measured over 30 mins post dose; assay type: organism-based; conditions: in vivo, 0.5 h
Escherichia coli [14] = assay: Antibacterial activity against quinolone-resistant Escherichia coli DNS5101 after 18 hrs by two-fold microbroth dilution method; assay type: functional; conditions: DNS5101, 18 h
Mus musculus [15] = assay: Toxicity in Slc:ddY mouse assessed as induction of mortality at 15 ug/5 uL/mouse administered intracisternally 30 mins after 400 mg/kg, po BPAA dosing and measured over 30 mins post dose; assay type: organism-based; conditions: in vivo, 0.5 h
[16] = AUC (0 to 24 hrs) in cynomolgus monkey serum at 5 mg/kg, po; assay type: ADME, organism-based, Macaca fascicularis; parameters: time < 24 hr, dose 5 mg/kg, route oral
Staphylococcus aureus [17] = assay: Antibacterial activity against methicillin-resistant Staphylococcus aureus after 18 hrs by two-fold microbroth dilution method; assay type: functional; conditions: Staphylococcus aureus, 18 h
Mus musculus [18] = assay: Toxicity in Slc:ddY mouse assessed as induction of mortality at 5 ug/5 uL/mouse administered intracisternally and measured over 30 mins post dose; assay type: organism-based; conditions: in vivo, other, 0.5 h
Mus musculus [19] = assay: Toxicity in Slc:ddY mouse assessed as induction of convulsion at 5 ug/5 uL/mouse administered intracisternally 30 mins after 400 mg/kg, po BPAA dosing and measured over 30 mins post dose; assay type: organism-based; conditions: in vivo, 0.5 h
CYP3A4 = CYP3A4 (Homo sapiens, UniProt P08684); assay: Inhibition of CYP3A4 in human liver microsomes at 10 uM assessed as remaining activity by measuring 1'-hydroxylation of midazolam after 30 mins; assay type: ADME; conditions: probe midazolam (1'-hydroxylation), read-out: Activity
Escherichia coli [20] = assay: Antibacterial activity against Escherichia coli 5-037042'98 harboring gyrase A Asp87Gly mutation after 18 hrs by two-fold microbroth dilution method; assay type: functional; conditions: 5-037042'98, 18 h
Albumin = Albumin (Homo sapiens, UniProt P02768); assay: Binding affinity to human serum albumin after 60 mins at 37 degC by ultrafiltration-based LC-MS analysis; assay type: ADME; conditions: read-out: PB (converted)
Mus musculus [21] = assay: Toxicity in Slc:ddY mouse assessed as induction of convulsion at 5 ug/5 uL/mouse administered intracisternally and measured over 30 mins post dose; assay type: organism-based; conditions: in vivo, other, 0.5 h
Streptococcus pyogenes = assay: Antibacterial activity against Streptococcus pyogenes ATCC 12344 after 18 hrs by two-fold microbroth dilution method; assay type: functional; conditions: ATCC 12344, 18 h
Mus musculus [22] = assay: Toxicity in Slc:ddY mouse assessed as induction of convulsion at 50 ug/5 uL/mouse administered intracisternally 30 mins after 400 mg/kg, po BPAA dosing and measured over 30 mins post dose; assay type: organism-based; conditions: in vivo, 0.5 h
Mus musculus [23] = assay: Toxicity in Slc:ddY mouse assessed as induction of convulsion at 15 ug/5 uL/mouse administered intracisternally 30 mins after 400 mg/kg, po BPAA dosing and measured over 30 mins post dose; assay type: organism-based; conditions: in vivo, 0.5 h

Chain of CYP3A4 (P08684 whole entry): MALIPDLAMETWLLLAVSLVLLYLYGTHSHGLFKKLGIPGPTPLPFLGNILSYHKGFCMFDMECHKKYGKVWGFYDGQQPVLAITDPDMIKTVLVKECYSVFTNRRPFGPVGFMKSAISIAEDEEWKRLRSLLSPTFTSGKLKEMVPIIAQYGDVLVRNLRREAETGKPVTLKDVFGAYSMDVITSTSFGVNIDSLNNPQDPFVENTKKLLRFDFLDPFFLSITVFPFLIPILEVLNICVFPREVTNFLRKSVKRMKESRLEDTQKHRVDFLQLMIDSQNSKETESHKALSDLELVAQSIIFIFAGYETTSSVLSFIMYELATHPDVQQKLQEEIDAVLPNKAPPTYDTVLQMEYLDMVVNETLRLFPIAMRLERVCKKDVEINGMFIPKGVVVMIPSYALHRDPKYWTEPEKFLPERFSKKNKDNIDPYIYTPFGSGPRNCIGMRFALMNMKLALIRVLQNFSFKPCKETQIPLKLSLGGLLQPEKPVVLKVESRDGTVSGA
Chain of Albumin (P02768 whole entry): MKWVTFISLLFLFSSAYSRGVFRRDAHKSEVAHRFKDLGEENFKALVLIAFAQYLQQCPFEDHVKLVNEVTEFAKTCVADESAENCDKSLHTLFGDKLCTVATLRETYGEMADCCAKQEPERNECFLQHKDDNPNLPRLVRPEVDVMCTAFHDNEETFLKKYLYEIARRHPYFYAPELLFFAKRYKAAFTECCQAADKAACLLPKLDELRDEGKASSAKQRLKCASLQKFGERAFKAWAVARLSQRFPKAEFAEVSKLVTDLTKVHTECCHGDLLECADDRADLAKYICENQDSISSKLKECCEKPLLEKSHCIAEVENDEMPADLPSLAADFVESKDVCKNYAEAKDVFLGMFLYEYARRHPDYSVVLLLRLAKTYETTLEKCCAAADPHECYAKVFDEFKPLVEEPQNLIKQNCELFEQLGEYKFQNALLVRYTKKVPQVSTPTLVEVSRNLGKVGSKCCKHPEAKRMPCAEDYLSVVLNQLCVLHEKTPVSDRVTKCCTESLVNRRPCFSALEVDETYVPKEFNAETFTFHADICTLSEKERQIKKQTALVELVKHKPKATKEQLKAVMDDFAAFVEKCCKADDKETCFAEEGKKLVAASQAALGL

Which MIC (Staphylococcus aureus [1]) does the source give for `COc1c(N2CC3(CC3)[C@](C)(N)C2)c(F)cc2c(=O)c(C(=O)O)cn([C@@H]3C[C@@H]3F)c12` here?
Its MIC is 0.012 µg/mL (≈ 0.0286 µM).

What about the MIC (Streptococcus pneumoniae [2]) of the same compound?
The MIC was 0.12 µg/mL (≈ 0.286 µM).

And the Activity (Mus musculus [3])?
The Activity was “Toxic”.

And the Activity (Mus musculus [4])?
The Activity was “Toxic”.

What about the MIC (Streptococcus pneumoniae [5]) of the same compound?
Its MIC is 0.1 µg/mL (≈ 0.238 µM).

What about the MIC (Bacillus spizizenii) of the same compound?
Its MIC is 0.012 µg/mL (≈ 0.0286 µM).

What about the AUC(0-t) at 8 h [6] of the same compound?
Its AUC(0-t) at 8 h is 23800 ng·h/mL.

What about the MIC (Staphylococcus aureus [7]) of the same compound?
The MIC was 0.78 µg/mL (≈ 1.86 µM).

What about the Activity (Mus musculus [8]) of the same compound?
Its Activity is “Non-Toxic”.

What about the remaining at 0.5 h, 1 µM [9] of the same compound?
The remaining at 0.5 h, 1 µM was 97%.

What about the Activity (Mus musculus [10]) of the same compound?
Its Activity is “Non-Toxic”.

What about the MIC (Staphylococcus aureus [11]) of the same compound?
Its MIC is 0.78 µg/mL (≈ 1.86 µM).

What about the Activity (Streptococcus pneumoniae [12]) of the same compound?
The Activity was “Active”.

What about the Activity (Mus musculus [13]) of the same compound?
The Activity was “Non-Toxic”.

And the MIC (Escherichia coli [14])?
Its MIC is 6.25 µg/mL (≈ 14.9 µM).

What about the Activity (Mus musculus [15]) of the same compound?
Its Activity is “Non-Toxic”.

What about the AUC(0-t) at 24 h [16] of the same compound?
Its AUC(0-t) at 24 h is 16900 ng·h/mL.

And the MIC50 (Staphylococcus aureus [17])?
The MIC50 was 0.03 µg/mL (≈ 0.0715 µM).

What about the MIC90 (Staphylococcus aureus [17]) of the same compound?
The MIC90 was 1 µg/mL (≈ 2.38 µM).

And the MIC (Staphylococcus aureus [17]; read-out: MIC)?
The MIC was 0.015 to 4 µg/mL (≈ 0.0358 to 9.54 µM).

And the Activity (Mus musculus [18])?
The Activity was “Non-Toxic”.

And the Activity (Mus musculus [19])?
The Activity was “Non-Toxic”.

And the activity at 0.5 h, 10 µM (CYP3A4)?
Its activity at 0.5 h, 10 µM is 78.4%.

What about the MIC (Escherichia coli [20]) of the same compound?
The MIC was 0.05 µg/mL (≈ 0.119 µM).

What about the fraction unbound at 1 h (Albumin) of the same compound?
The fraction unbound at 1 h was 0.946.

And the Activity (Mus musculus [21])?
The Activity was “Non-Toxic”.

And the MIC (Streptococcus pyogenes)?
Its MIC is 0.2 µg/mL (≈ 0.477 µM).

With `O=C(O)c1cn(C2CC2)c2cc(N3CCNCC3)c(F)cc2c1=O` [CIPROFLOXACIN] as the compound, how does the Activity (Mus musculus [22]) read?
Its Activity is “Toxic”.

What about the Activity (Mus musculus [8]) of the same compound?
The Activity was “Toxic”.

And the Activity (Mus musculus [13])?
Its Activity is “Toxic”.

And the Activity (Mus musculus [15])?
Its Activity is “Toxic”.

What about the Activity (Mus musculus [23]) of the same compound?
Its Activity is “Toxic”.

And the Activity (Mus musculus [18])?
The Activity was “Non-Toxic”.

What about the Activity (Mus musculus [19]) of the same compound?
Its Activity is “Toxic”.

And the Activity (Mus musculus [21])?
Its Activity is “Non-Toxic”.
